Reference: patent US11492346B2, “Benzisoxazole sulfonamide derivatives” (Pfizer Inc., priority 2019, dated 2022)
Like-named read-outs stand apart in the source and are kept apart here.

Assays:
[1] = molecular target: KAT6A (Homo sapiens (Human), UniProt Q92794); experiment: KAT assay (SAMDI mass spectrometry), KAT6A; format: biochemical;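 also: Baculovirus-expressed KAT6A acetylating histone H3 (1-21) peptide (2 µM), 30-60 min at room temperature, % product conversion fitted to Morrison equation for tight-binding competitive inhibitors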
KAT6A, sequence (Q92794 whole entry): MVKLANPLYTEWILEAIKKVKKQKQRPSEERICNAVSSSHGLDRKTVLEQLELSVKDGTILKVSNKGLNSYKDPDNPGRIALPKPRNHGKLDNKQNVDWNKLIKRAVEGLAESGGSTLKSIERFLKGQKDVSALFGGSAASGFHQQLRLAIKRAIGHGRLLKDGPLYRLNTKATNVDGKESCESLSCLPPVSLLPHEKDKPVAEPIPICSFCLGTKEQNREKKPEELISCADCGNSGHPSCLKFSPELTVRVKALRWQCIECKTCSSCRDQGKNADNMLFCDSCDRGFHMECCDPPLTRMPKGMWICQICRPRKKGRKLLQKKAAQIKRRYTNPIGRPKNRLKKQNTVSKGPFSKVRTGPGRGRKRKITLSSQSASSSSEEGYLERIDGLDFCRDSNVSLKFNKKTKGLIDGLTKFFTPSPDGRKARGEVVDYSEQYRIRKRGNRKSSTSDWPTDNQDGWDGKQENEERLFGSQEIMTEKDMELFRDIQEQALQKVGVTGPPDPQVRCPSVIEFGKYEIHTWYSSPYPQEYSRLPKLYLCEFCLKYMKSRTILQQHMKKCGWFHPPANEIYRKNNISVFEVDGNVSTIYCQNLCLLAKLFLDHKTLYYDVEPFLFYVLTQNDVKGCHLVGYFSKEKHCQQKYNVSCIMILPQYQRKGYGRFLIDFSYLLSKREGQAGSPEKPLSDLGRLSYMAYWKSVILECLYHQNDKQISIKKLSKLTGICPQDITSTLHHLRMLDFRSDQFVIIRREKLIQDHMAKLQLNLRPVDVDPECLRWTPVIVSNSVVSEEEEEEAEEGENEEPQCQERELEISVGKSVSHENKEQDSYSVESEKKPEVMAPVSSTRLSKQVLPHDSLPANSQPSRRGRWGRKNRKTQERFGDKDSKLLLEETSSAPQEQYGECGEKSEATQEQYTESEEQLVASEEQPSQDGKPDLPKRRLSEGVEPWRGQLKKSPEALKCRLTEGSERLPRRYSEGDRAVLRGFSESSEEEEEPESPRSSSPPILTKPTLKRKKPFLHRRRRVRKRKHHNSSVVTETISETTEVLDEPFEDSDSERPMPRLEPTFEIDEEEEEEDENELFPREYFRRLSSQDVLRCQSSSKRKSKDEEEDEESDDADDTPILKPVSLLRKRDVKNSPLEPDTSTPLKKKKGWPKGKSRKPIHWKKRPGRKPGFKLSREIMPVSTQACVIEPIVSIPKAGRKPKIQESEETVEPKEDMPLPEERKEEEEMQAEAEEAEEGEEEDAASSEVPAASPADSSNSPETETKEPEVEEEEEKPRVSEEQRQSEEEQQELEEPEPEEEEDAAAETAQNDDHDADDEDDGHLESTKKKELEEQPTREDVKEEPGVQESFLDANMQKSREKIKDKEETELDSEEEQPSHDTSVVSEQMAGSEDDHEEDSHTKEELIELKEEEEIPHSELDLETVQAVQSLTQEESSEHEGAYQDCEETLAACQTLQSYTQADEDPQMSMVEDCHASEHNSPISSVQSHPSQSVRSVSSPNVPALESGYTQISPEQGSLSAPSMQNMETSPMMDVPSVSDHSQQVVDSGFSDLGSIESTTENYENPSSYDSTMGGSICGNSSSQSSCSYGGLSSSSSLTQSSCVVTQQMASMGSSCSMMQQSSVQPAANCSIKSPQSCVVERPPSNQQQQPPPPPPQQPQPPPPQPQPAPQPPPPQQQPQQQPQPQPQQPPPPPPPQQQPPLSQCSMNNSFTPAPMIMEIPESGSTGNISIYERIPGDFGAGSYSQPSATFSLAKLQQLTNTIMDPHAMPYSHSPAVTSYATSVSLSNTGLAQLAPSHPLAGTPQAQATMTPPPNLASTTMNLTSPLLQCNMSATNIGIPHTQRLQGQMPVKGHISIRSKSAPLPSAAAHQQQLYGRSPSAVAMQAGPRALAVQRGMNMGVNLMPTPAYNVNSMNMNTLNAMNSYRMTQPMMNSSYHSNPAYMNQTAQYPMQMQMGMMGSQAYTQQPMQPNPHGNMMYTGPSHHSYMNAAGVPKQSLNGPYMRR

[2] = molecular target: KAT7 (Homo sapiens (Human), UniProt O95251); experiment: KAT assay (SAMDI mass spectrometry), KAT7; format: biochemical;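 also: Baculovirus-expressed enzyme acetylating a histone peptide at room temperature, percent conversion from product and substrate peak areas, Ki from a Morrison tight-binding competitive fit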
KAT7, sequence (O95251 whole entry): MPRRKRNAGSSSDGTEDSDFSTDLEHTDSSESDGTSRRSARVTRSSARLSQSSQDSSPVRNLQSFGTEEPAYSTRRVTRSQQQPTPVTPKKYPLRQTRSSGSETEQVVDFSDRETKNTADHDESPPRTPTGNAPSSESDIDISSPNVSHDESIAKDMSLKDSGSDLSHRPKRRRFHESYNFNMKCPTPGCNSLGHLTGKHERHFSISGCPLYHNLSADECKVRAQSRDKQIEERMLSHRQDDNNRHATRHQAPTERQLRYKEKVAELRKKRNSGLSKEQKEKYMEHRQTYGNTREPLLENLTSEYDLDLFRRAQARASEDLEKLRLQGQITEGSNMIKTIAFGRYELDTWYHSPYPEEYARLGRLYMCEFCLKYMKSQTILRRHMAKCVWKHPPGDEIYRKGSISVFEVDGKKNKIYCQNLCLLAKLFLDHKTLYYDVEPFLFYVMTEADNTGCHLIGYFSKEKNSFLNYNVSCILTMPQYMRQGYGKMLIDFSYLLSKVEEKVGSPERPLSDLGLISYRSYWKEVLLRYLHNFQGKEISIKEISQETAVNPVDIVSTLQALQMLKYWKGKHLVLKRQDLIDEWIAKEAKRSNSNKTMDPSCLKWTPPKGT

[3] = KAT6a Ki at 1 μM AcCoA, 1 μM AcCoA
[4] = KAT6a Ki at 10 μM AcCoA, 10 μM AcCoA
[5] = read-out: KAT6a Ki at 1 μM AcCoA, 1 μM AcCoA
[6] = read-out: KAT7 Ki at 1 μM AcCoA
[7] = read-out: KAT6a Ki at 10 μM AcCoA, 10 μM AcCoA

Row | SMILES | Ki [1, 3] [µM] | Ki ([2]; KAT7 Ki at 1 μM AcCoA) [µM] | Ki [1, 4] [µM] | Ki [1, 5] [µM] | Ki [2, 6] [µM] | Ki [1, 7] [µM]
1 | COc1cccc(OC)c1S(=O)(=O)Nc1noc2cc(C(O)c3ncco3)cc(OC)c12 (single isomer, unassigned) [Example 108, N-{6-[(S*)-hydroxy(1,3-oxazol-2-yl)methyl]-4-methoxy-1,2-benzoxazol-3-yl}-2,6-dimethoxybenzenesulfonamide] | 0.072 | 1.3 |  |  |  | 
2 | COc1cccc(OC)c1S(=O)(=O)Nc1noc2cc(C(O)c3ncco3)cc(OC)c12 (single isomer, unassigned) [Example 109, N-{6-[(R*)-hydroxy(1,3-oxazol-2-yl)methyl]-4-methoxy-1,2-benzoxazol-3-yl}-2,6-dimethoxybenzenesulfonamide] | 0.044 | 3.1 |  |  |  | 
3 | COc1cccc(OC)c1S(=O)(=O)Nc1noc2cc(C(O)c3ccon3)cc(OC)c12 (single isomer, unassigned) [Example 112] | 0.082 | 1.5 |  |  |  | 
4 | COc1cccc(OC)c1S(=O)(=O)Nc1noc2cc(C(O)c3ccon3)cc(OC)c12 (single isomer, unassigned) [Example 113] | 0.014 | 2.8 |  |  |  | 
5 | COc1cccc(OC)c1S(=O)(=O)Nc1noc2cc(C(O)c3ncccn3)cc(OC)c12 (single isomer, unassigned) [Example 115] | 1.22 | > 15 |  |  |  | 
6 | COc1cccc(OC)c1S(=O)(=O)Nc1noc2cc(C(O)c3cc[nH]n3)cc(OC)c12 (single isomer, unassigned) [Example 117] | 0.202 | 0.2 |  |  |  | 
7 | COc1cccc(OC)c1S(=O)(=O)Nc1noc2cc(C(O)c3cc[nH]n3)cc(OC)c12 (single isomer, unassigned) [Example 118] | 0.357 | 2.3 |  |  |  | 
8 | COc1cccc(OC)c1S(=O)(=O)Nc1noc2cc(C(O)c3cnoc3)cc(OC)c12 (single isomer, unassigned) [Example 120] | 0.831 | 2.4 | 0.212 |  |  | 
9 | COc1cccc(OC)c1S(=O)(=O)Nc1noc2cc(C(O)c3cnoc3)cc(OC)c12 (single isomer, unassigned) [Example 121] | 1.58 | > 15 | > 0.6 |  |  | 
10 | COc1cccc(OC)c1S(=O)(=O)Nc1noc2cc(C(O)c3cocn3)cc(OC)c12 (single isomer, unassigned) [Example 126] | 0.23 | 4.15 |  |  |  | 
11 | COc1cccc(OC)c1S(=O)(=O)Nc1noc2cc(Cn3ncc4ccccc43)cc(OC)c12 [Example 30] |  |  |  | 0.06 | 1.1 | 
12 | COc1cccc(OC)c1S(=O)(=O)Nc1noc2cc(Cn3cccn3)cc(Cl)c12 [Example 33] |  |  |  | 0.0031 | 0.31 | 
13 | COc1ccc(S(=O)(=O)Nc2noc3cc(Cn4cccn4)ccc23)c(OC)c1 [Example 35] |  |  |  | 0.015 | 0.42 | 
14 | COc1ccc(Cl)cc1S(=O)(=O)Nc1noc2cc(Cn3cccn3)ccc12 [Example 36] |  |  |  | 0.017 | 0.98 | 
15 | COCc1ccc(OC)c(S(=O)(=O)Nc2noc3cc(Cn4cccn4)ccc23)c1 [Example 37] |  |  |  | 0.017 | 4.6 | 
16 | COc1cc(C)ccc1S(=O)(=O)Nc1noc2cc(Cn3cccn3)ccc12 [Example 38] |  |  |  | 0.016 | 0.53 | 
17 | CCOc1cc2c(NS(=O)(=O)c3c(OC)cccc3OC)noc2cc1Cn1cccn1 [Example 40] |  |  |  | 0.00047 | 0.38 | 
18 | COc1cc2c(cc1S(=O)(=O)Nc1noc3cc(Cn4cccn4)cc(OC)c13)CCOC2 [Example 43] |  |  |  | 0.0036 | 0.57 | 
19 | COc1cc(Cn2cccn2)cc2onc(NS(=O)(=O)c3ccc(C(F)(F)F)cc3)c12 [Example 46] |  |  |  | 0.0329 | 1.03 | 0.0131
20 | COc1cc(Cn2cccn2)cc2onc(NS(=O)(=O)c3cc(C)cc(C)c3)c12 [Example 48] |  |  |  | 0.0149 | 0.41 | 0.00651
21 | COc1cc(Cn2cccn2)cc2onc(NS(=O)(=O)c3cc(F)ccc3C)c12 [Example 49] |  |  |  | 0.00977 | 0.37 | 0.00414
22 | COc1cc(Cn2cccn2)cc2onc(NS(=O)(=O)c3ccccc3C(F)(F)F)c12 [Example 52] |  |  |  | 0.0146 | 0.66 | 0.00732
23 | COc1cc(Cn2cccn2)cc2onc(NS(=O)(=O)c3cccc(C(F)(F)F)c3)c12 [Example 53] |  |  |  | 0.0161 | 0.3 | 0.00878
24 | COc1cc(Cn2cccn2)cc2onc(NS(=O)(=O)c3cccc(F)c3F)c12 [Example 54] |  |  |  | 0.057 | 1.16 | 0.038
25 | COC(=O)c1cccc(C)c1S(=O)(=O)Nc1noc2cc(Cn3cccn3)cc(OC)c12 [Example 55] |  |  |  | 0.291 | 15 | 0.178
26 | COc1cc(Cn2cccn2)cc2onc(NS(=O)(=O)c3cccc(F)c3C)c12 [Example 56] |  |  |  | 0.0149 | 0.6 | 0.00731

Row | SMILES | Ki [1, 3] [µM] | Ki ([2]; KAT7 Ki at 1 μM AcCoA) [µM] | Ki [1, 4] [µM] | Ki [1, 5] [µM] | Ki [2, 6] [µM] | Ki [1, 7] [µM]
27 | COc1cc(Cn2cccn2)cc2onc(NS(=O)(=O)c3cc(F)cc(F)c3)c12 [Example 57] |  |  |  | 0.016 | 0.45 | 
28 | COc1cc(Cn2cccn2)cc2onc(NS(=O)(=O)c3cc(C)ccc3F)c12 [Example 58] |  |  |  | 0.0111 | 0.86 | 0.00523
29 | COc1cccc(S(=O)(=O)Nc2noc3cc(Cn4cccn4)cc(OC)c23)c1 [Example 59] |  |  |  | 0.013 | 0.22 | 0.00625
30 | COc1cc(Cn2cccn2)cc2onc(NS(=O)(=O)c3ccc(OC4CC4)cc3)c12 [Example 60] |  |  |  | 0.00981 | 0.42 | 0.00464
31 | COc1cc(Cn2cccn2)cc2onc(NS(=O)(=O)c3c(F)cc(C)cc3F)c12 [Example 62] |  |  |  | 0.00964 | 0.36 | 0.0039
32 | COc1cc(Cn2cccn2)cc2onc(NS(=O)(=O)c3cccc(F)c3Cl)c12 [Example 63] |  |  |  | 0.0158 | 0.94 | 0.0109
33 | COc1cc(Cn2cccn2)cc2onc(NS(=O)(=O)c3cc(F)c(F)c(F)c3)c12 [Example 64] |  |  |  | 0.0253 | 0.63 | 0.011
34 | CNC(=O)c1ccc(S(=O)(=O)Nc2noc3cc(Cn4cccn4)cc(OC)c23)cc1 [Example 66] |  |  |  | 0.0954 | 4.05 | 0.0656
35 | COCc1ccccc1S(=O)(=O)Nc1noc2cc(Cn3cccn3)cc(OC)c12 [Example 67] |  |  |  | 0.02 | 1.76 | 0.0102
36 | COc1cc(Cn2cccn2)cc2onc(NS(=O)(=O)c3cc(F)c(Cl)cc3F)c12 [Example 68] |  |  |  | 0.0149 | 0.25 | 0.0105
37 | CCOc1ccc(S(=O)(=O)Nc2noc3cc(Cn4cccn4)cc(OC)c23)cc1 [Example 69] |  |  |  |  | 0.37 | 0.0091
38 | COC(=O)c1c(C)cccc1S(=O)(=O)Nc1noc2cc(Cn3cccn3)cc(OC)c12 [Example 74] |  |  |  | 0.0248 | 2.87 | 0.0136
39 | COc1cc(OC)cc(S(=O)(=O)Nc2noc3cc(Cn4cccn4)cc(OC)c23)c1 [Example 80] |  |  |  | 0.0156 | 0.36 | 0.00532
40 | CCc1nc2cc(S(=O)(=O)Nc3noc4cc(Cn5cccn5)cc(OC)c34)ccc2o1 [Example 81] |  |  |  | 0.0182 | 1.62 | 0.00996
41 | COc1cc(S(=O)(=O)Nc2noc3cc(Cn4cccn4)cc(OC)c23)ccc1F [Example 82] |  |  |  | 0.0169 | 0.64 | 0.0122
42 | COc1ccc(O)c(S(=O)(=O)Nc2noc3cc(Cn4cccn4)cc(OC)c23)c1 [Example 83] |  |  |  | 0.0137 | 0.78 | 0.00776
43 | COc1ccc(S(=O)(=O)Nc2noc3cc(Cn4cccn4)cc(OC)c23)c(C)c1F [Example 85] |  |  |  | 0.0133 | 1.14 | 0.00877
44 | COc1cc(Cn2cccn2)cc2onc(NS(=O)(=O)c3cc(F)c(F)cc3F)c12 [Example 86] |  |  |  | 0.0289 | 0.37 | 0.00711
45 | COc1ccc(O)c(OC)c1S(=O)(=O)Nc1noc2cc(Cn3cccn3)cc(OC)c12 [Example 103, 3-hydroxy-2,6-dimethoxy-N-{4-methoxy-6-[(1H-pyrazol-1-yl)methyl]-1,2-benzoxazol-3-yl}benzene-1-sulfonamide] |  |  |  | 0.0003 | 0.15 | 0.00051
46 | COc1cccc(O)c1S(=O)(=O)Nc1noc2cc(Cn3cccn3)cc(OC)c12 [Example 104, 2-hydroxy-6-methoxy-N-{4-methoxy-6-[(1H-pyrazol-1-yl)methyl]-1,2-benzoxazol-3-yl}benzene-1-sulfonamide] |  |  |  | 0.00611 | 2.06 | 0.00389
47 | COc1cccc(OC)c1S(=O)(=O)Nc1noc2cc(Cn3cc(O)cn3)cc(OC)c12 [Example 105, N-{6-[(4-hydroxy-1H-pyrazol-1-yl)methyl]-4-methoxy-1,2-benzoxazol-3-yl}-2,6-dimethoxybenzene-1-sulfonamide] |  |  |  | 0.00308 | 0.23 | 0.00628
48 | COc1cccc(OC)c1S(=O)(=O)Nc1noc2cc(C(O)c3ccccn3)cc(OC)c12 (stereo not drawn) [Example 106, N-{6-[hydroxy(pyridin-2-yl)methyl]-4-methoxy-1,2-benzoxazol-3-yl}-2,6-dimethoxybenzenesulfonamide] |  |  |  | 0.035 | 1.9 | 
49 | COc1cccc(OC)c1S(=O)(=O)Nc1noc2cc(Cc3cnccn3)cc(OC)c12 [Example 111, 2,6-dimethoxy-N-[4-methoxy-6-(pyrazin-2-ylmethyl)-1,2-benzoxazol-3-yl]benzenesulfonamide] |  |  |  | 0.013 | 0.39 | 
50 | COc1cccc(OC)c1S(=O)(=O)Nc1noc2cc(Cc3cc[nH]n3)cc(OC)c12 [Example 119] |  |  |  | 0.021 | 0.65 | 0.013
51 | COc1cccc(OC)c1S(=O)(=O)Nc1noc2cc(Cc3cnoc3)cc(OC)c12 [Example 122] |  |  |  | 0.164 | 7.4 | 0.025
52 | COc1cccc(OC)c1S(=O)(=O)Nc1noc2cc(C(O)c3cnccn3)cc(OC)c12 (stereo not drawn) [Example 123] |  |  |  | 0.138 | 4.6 | 
